According to article PMC12040169 (PLOS Biology, 2025):

Experiment: in vitro
Conditions: human, hela cells, % viability

## C[C@H](Nc1nccnc1-c1ccsc1)c1ccccc1 [CBK088716]
  viability at 28.5 h, 10 µM: 94.9%

## CC(C)CNc1nccnc1-c1ccc2c(c1)OCO2 [CBK088730]
  viability at 28.5 h, 10 µM: 98.4%

## CC(C)CNc1nccnc1-c1ccc(Cl)cc1 [CBK088738]
  viability at 28.5 h, 10 µM: 91.3%

## Nc1nn2c(c1Cc1c(Cl)cccc1Cl)OCC2 [CBK088759]
  viability at 28.5 h, 10 µM: 91.7%

## CN1CCN(c2nccnc2-c2ccccc2)CC1 [CBK088825]
  viability at 28.5 h, 10 µM: 88.7%

## CCCNc1nccnc1-c1cccc(Cl)c1Cl [CBK088892]
  viability at 28.5 h, 10 µM: 93.8%

## CCCNc1nccnc1-c1cccc(CO)c1 [CBK088897]
  viability at 28.5 h, 10 µM: 91.5%

## Nc1c(Cc2c(Cl)cccc2Cl)c(=O)n2n1CCC2 [CBK088948]
  viability at 28.5 h, 10 µM: 98.9%

## Fc1ccc(-c2nccnc2NCc2ccncc2)cc1 [CBK088964]
  viability at 28.5 h, 10 µM: 98.8%

## COc1ccccc1-c1nccnc1NCCCO [CBK088971]
  viability at 28.5 h, 10 µM: 98.8%

## OCCCNc1nccnc1-c1cccc(F)c1 [CBK088976]
  viability at 28.5 h, 10 µM: 98.5%

## CC(C)[C@@H](CO)Nc1nccnc1-c1cccs1 [CBK089024]
  viability at 28.5 h, 10 µM: 93.7%

## COc1ccccc1-c1nccnc1N[C@@H](CO)C(C)C [CBK089034]
  viability at 28.5 h, 10 µM: 93.6%

## OCC1CCCN1c1nccnc1-c1ccoc1 (stereo not drawn) [CBK089057]
  viability at 28.5 h, 10 µM: 105%

## OCC1CCCN1c1nccnc1-c1cccs1 (stereo not drawn) [CBK089060]
  viability at 28.5 h, 10 µM: 106%

## CC(O)CNc1nccnc1-c1ccccc1 (stereo not drawn) [CBK089257]
  viability at 28.5 h, 10 µM: 95.7%

## c1cncc(CNc2nccnc2-c2ccsc2)c1 [CBK089314]
  viability at 28.5 h, 10 µM: 113%

## Nc1c(Cc2c(Cl)cccc2Cl)c(=O)n2n1CCCC2 [CBK089337]
  viability at 28.5 h, 10 µM: 95%

## CCC1CCCCN1C(=O)c1cc(C)oc1C (stereo not drawn) [CBK089358]
  viability at 28.5 h, 10 µM: 105%

## CCOC(=O)N1CCC2(CC1)Oc1ccc(Br)cc1O2 [CBK089365]
Bulk resorufin, single well
  viability at 28.5 h, 10 µM: 80.9%

## O=C(N1CCOCC1)C12CC3CC(CC(C3)C1)C2 [CBK089368]
  viability at 28.5 h, 10 µM: 90.3%

## CC(C)Nc1nccnc1Sc1cccs1 [CBK089490]
  viability at 28.5 h, 10 µM: 123%

## CC(C)Nc1cc(Sc2ccc(Br)cc2)ncn1 [CBK089502]
  viability at 28.5 h, 10 µM: 103%

## Nc1ccc(Sc2nccnc2N2CCCC2)cc1 [CBK089520]
  viability at 28.5 h, 10 µM: 94.4%

## COc1cccc(Sc2cc(N3CCCC3)ncn2)c1 [CBK089533]
  viability at 28.5 h, 10 µM: 110%

## c1ccc2c(Sc3cc(N4CCCC4)ncn3)cccc2c1 [CBK089538]
  viability at 28.5 h, 10 µM: 94.2%

## Fc1ccc(Sc2nc3ccccc3nc2N2CCCC2)cc1 [CBK089543]
  viability at 28.5 h, 10 µM: 101%

## CC(C)(C)OCc1[nH]nc(O)c1Cc1c(Cl)cccc1Cl [CBK089569]
  viability at 28.5 h, 10 µM: 106%

## CCCNCC(=O)N1CN(C(=O)c2ccc(C)cc2)C(C)(C)C1 [CBK089572C]
  viability at 28.5 h, 10 µM: 111%

## Cc1ccc(C(=O)N2CN(C(=O)CNC3CC3)CC2(C)C)cc1 [CBK089574C]
  viability at 28.5 h, 10 µM: 98.4%

## Nc1cccc(Sc2ccc(C(F)(F)F)cn2)c1 [CBK089606]
  viability at 28.5 h, 10 µM: 107%

## FC(F)(F)c1cccc(Sc2ccc(Cl)c(Cl)c2)n1 [CBK089608]
  viability at 28.5 h, 10 µM: 91.2%

## CCNc1cc2ccccc2c(-c2ccc(OC)c(C)c2)n1 [CBK089644]
  viability at 28.5 h, 10 µM: 86%

## CCc1nccnc1OC [CBK089673]
  viability at 28.5 h, 10 µM: 101%

## OCCNc1nccnc1Cl [CBK089793]
  viability at 28.5 h, 10 µM: 114%

## CC(C)(C)S(=O)(=O)Cc1noc(-c2ccc(Cl)nc2)n1 [CBK089825]
  viability at 28.5 h, 10 µM: 98.9%

## COC(=O)C(N)c1c[nH]c2ccccc12 (stereo not drawn) [CBK089840]
  viability at 28.5 h, 10 µM: 104%

## COc1cc(-n2cnc3cc(-c4ccc(Cl)cc4)sc3c2=O)ccc1OCCN1CCCC1 [CBK089844C]
  viability at 28.5 h, 10 µM: 40.7%

## CNC(=O)c1cc2ncc(C(F)(F)F)cc2s1 [CBK089882]
  viability at 28.5 h, 10 µM: 93.1%

## NC(=O)c1sc2cc(C(F)(F)F)cnc2c1-c1cccs1 [CBK089891]
  viability at 28.5 h, 10 µM: 88.2%

## Cn1nc2c(c1O)CCCC2 [CBK089897]
  viability at 28.5 h, 10 µM: 102%

## CCOc1cc(/C=N/O)ccc1OC(=O)c1cccc([N+](=O)[O-])c1 [CBK090036]
  viability at 28.5 h, 10 µM: 107%

## CC(=O)Nc1ccc(OC(=O)N2CCCCC2)cc1 [CBK090124]
Bulk resorufin, single well
  viability at 28.5 h, 10 µM: 99.1%

## Cc1ccc(C(C)(C)C)c(OC(=O)c2cnc(C)cn2)c1 [CBK090261]
  viability at 28.5 h, 10 µM: 96.5%

## N#CCc1ccc(OC(=O)c2cccnc2)cc1 [CBK090304]
  viability at 28.5 h, 10 µM: 105%

## Nc1nccnc1C(=O)Oc1ccccc1 [CBK090311]
  viability at 28.5 h, 10 µM: 88.1%

## O=C(Oc1ccccc1)c1cc(Cl)cnc1Cl [CBK090320]
  viability at 28.5 h, 10 µM: 101%

## Cc1ccc(OC(=O)c2cc(Cl)cnc2Cl)cc1 [CBK090321]
  viability at 28.5 h, 10 µM: 84.5%

## O=C(Oc1ccccc1)c1ccnc(Cl)c1 [CBK090322]
  viability at 28.5 h, 10 µM: 87.2%

## Nc1ncc(-c2ccc(C(F)(F)F)cc2)nc1-c1ccc(C(=O)N2CCOCC2)cc1 [CBK090524]
  viability at 28.5 h, 10 µM: 103%

## COc1cc(Nc2cc(-c3ccccc3N(C)C)ncn2)cc(OC)c1OC [CBK090702]
  viability at 28.5 h, 10 µM: 64.2%

## COc1cc(Nc2cc(-c3ccco3)ncn2)cc(OC)c1OC [CBK090706]
  viability at 28.5 h, 10 µM: 90.3%

## COc1cc(Nc2cc(-c3ccc(NC(C)=O)cc3)ncn2)cc(OC)c1OC [CBK090710]
  viability at 28.5 h, 10 µM: 103%

## CCOC(=O)Cc1ccc(Nc2cc(-c3ccc(N(C)C)cc3)ncn2)cc1 [CBK090712]
  viability at 28.5 h, 10 µM: 31.6%

## CC(=O)Nc1ccc(Nc2cc(-c3ccsc3)ncn2)cc1 [CBK090717]
  viability at 28.5 h, 10 µM: 96.8%

## CC(=O)Nc1ccc(Nc2cc(-c3ccc(Cl)cc3)ncn2)cc1 [CBK090720]
  viability at 28.5 h, 10 µM: 93.6%

## CC(=O)Nc1ccc(Nc2cc(-c3ccc(CC(C)C)cc3)ncn2)cc1 [CBK090723]
  viability at 28.5 h, 10 µM: 99.4%

## COc1cccc(Nc2cc(-c3cccc(N)c3)ncn2)c1OC [CBK090726]
  viability at 28.5 h, 10 µM: 104%

## COc1cccc(Nc2cc(-c3ccco3)ncn2)c1OC [CBK090727]
  viability at 28.5 h, 10 µM: 92.2%

## COc1cccc(Nc2cc(-c3ccc(CC(C)C)cc3)ncn2)c1 [CBK090745]
  viability at 28.5 h, 10 µM: 110%

## Oc1ccc(Nc2cc(-c3ccc(Cl)cc3)ncn2)cc1 [CBK090751]
  viability at 28.5 h, 10 µM: 94.3%

## CC(C)Cc1ccc(-c2cc(Nc3ccc(O)cc3)ncn2)cc1 [CBK090754]
  viability at 28.5 h, 10 µM: 93.6%

## COc1ccc(Nc2cc(-c3ccco3)ncn2)c(OC)c1 [CBK090761]
  viability at 28.5 h, 10 µM: 105%

## COc1ccc(-c2cc(Nc3ccc(OC)cc3OC)ncn2)cc1 [CBK090763]
  viability at 28.5 h, 10 µM: 46.7%

## Nc1cccc(-c2cc(Nc3ccc(CCO)cc3)ncn2)c1 [CBK090766]
  viability at 28.5 h, 10 µM: 104%

## OCCc1ccc(Nc2cc(-c3ccc4c(c3)OCO4)ncn2)cc1 [CBK090767]
  viability at 28.5 h, 10 µM: 97.8%

## OCCc1ccc(Nc2cc(-c3cc4ccccc4s3)ncn2)cc1 [CBK090770]
  viability at 28.5 h, 10 µM: 103%

## OCCc1ccc(Nc2cc(-c3ccco3)ncn2)cc1 [CBK090771]
  viability at 28.5 h, 10 µM: 100%

## COc1cc(C)c(Nc2cc(-c3cccc(N(C)C)c3)ncn2)cc1OC [CBK090780]
  viability at 28.5 h, 10 µM: 43.5%

## COc1cc(C)c(Nc2cc(-c3ccc(C(N)=O)cc3)ncn2)cc1OC [CBK090784]
  viability at 28.5 h, 10 µM: 98.9%

## COc1cc(C)c(Nc2cc(-c3ccc(F)c(F)c3)ncn2)cc1OC [CBK090787]
  viability at 28.5 h, 10 µM: 73.4%

## COCCNc1cc(-c2ccc(C(C)=O)s2)ncn1 [CBK090791]
  viability at 28.5 h, 10 µM: 115%
